The values below come from ChEMBL document CHEMBL5131538 (J Med Chem, 2022).

In assay [1] the test system is Rattus norvegicus. In words: Organ protective activity in aldosterone-induced uninephrectomized Sprague-Dawley rat model assessed as myocardial fibrosis in heart by measuring pathological lesion score at 1 mg/kg/day by sirius red and H and E staining based histological analysis (reference value: 1.6 +/- 0.3). Type of assay: functional.
The target in the next assay is T1, Androgen receptor (Homo sapiens, UniProt P10275).
T1 sequence (P10275 whole entry): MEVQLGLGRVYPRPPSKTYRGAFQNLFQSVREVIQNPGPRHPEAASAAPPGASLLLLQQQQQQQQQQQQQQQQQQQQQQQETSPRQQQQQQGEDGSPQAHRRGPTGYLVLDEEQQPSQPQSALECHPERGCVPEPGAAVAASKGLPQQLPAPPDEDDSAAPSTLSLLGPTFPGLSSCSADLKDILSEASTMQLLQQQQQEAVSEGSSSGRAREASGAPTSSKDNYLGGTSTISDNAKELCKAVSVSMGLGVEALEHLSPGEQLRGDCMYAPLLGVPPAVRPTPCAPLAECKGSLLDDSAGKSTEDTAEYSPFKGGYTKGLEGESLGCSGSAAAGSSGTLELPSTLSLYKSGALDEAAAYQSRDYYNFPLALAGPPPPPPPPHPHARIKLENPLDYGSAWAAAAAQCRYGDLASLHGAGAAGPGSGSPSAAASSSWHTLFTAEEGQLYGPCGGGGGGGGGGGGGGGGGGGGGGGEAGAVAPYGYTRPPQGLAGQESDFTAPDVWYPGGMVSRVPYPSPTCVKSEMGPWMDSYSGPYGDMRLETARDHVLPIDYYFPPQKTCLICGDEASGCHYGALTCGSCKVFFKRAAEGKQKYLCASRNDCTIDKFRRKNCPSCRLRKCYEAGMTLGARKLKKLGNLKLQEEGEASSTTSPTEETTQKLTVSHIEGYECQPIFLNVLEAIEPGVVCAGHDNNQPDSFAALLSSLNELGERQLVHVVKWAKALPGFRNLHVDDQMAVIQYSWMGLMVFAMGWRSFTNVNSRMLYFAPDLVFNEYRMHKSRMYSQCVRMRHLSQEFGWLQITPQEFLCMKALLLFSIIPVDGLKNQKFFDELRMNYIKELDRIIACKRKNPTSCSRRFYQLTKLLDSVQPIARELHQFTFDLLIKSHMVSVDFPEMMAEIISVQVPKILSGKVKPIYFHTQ

In assay [2] the test system is Rattus norvegicus. The assay is described as follows: Organ protective activity in aldosterone-induced uninephrectomized Sprague-Dawley rat model assessed as degeneration of arteries and perivascular fibrosis in heart by measuring pathological lesion score at 10 mg/kg/day by sirius red and H and E staining based histological analysis (reference value: 1.6 +/- 0.4). Type of assay: functional.

The subject of assay [3] is Rattus norvegicus. The assay is described as follows: Organ protective activity in aldosterone-induced uninephrectomized Sprague-Dawley rat model assessed as myocardial fibrosis in heart by measuring pathological lesion score at 3 mg/kg/day by sirius red and H and E staining based histological analysis (reference value: 1.6 +/- 0.3). Format: functional.
Assay [4] deals with Rattus norvegicus. The assay is described as follows: Antihypertensive activity against aldosterone induced uninephrectomized Sprague-Dawley rat assessed as reduction in urinary albumin excretion at 3 to 10 mg/kg, po qd administered for 4 weeks. Type of assay: functional, organism-based. The settings on record: dose 3-10 mg/kg.
The target of the next assay is Estrogen receptor beta (Homo sapiens, UniProt Q92731). In words: biochemical.
Sequence of Estrogen receptor beta (Q92731 whole entry): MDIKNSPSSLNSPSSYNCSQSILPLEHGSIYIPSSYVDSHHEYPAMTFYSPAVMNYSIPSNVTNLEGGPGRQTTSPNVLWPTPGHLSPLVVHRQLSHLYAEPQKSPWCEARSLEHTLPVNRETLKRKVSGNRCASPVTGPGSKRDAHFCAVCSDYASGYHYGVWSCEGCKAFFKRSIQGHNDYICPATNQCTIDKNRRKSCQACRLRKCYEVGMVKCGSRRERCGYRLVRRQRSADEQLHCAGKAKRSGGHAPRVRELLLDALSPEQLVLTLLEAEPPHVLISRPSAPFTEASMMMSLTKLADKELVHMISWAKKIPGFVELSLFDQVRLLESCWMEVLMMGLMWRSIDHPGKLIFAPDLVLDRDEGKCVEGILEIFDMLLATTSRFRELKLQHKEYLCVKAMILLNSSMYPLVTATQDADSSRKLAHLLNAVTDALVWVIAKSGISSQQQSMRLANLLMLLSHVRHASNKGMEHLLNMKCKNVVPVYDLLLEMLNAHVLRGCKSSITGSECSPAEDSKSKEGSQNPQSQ
Assay [5] is described as follows: In vivo antagonist activity at MR in po dosed Sprague-Dawley rat assessed as reversal of aldosterone induced decrease in urinary Na+/K+ ratio preincubated for 3 hrs followed by aldosterone stimulation and measured over 5 hrs by automated electrolyte analyzer anlysis. Format: functional. Particulars: time 8 hrs.
Another assay addresses T2, Glucocorticoid receptor (Homo sapiens, UniProt P04150).
T2 sequence (P04150 whole entry): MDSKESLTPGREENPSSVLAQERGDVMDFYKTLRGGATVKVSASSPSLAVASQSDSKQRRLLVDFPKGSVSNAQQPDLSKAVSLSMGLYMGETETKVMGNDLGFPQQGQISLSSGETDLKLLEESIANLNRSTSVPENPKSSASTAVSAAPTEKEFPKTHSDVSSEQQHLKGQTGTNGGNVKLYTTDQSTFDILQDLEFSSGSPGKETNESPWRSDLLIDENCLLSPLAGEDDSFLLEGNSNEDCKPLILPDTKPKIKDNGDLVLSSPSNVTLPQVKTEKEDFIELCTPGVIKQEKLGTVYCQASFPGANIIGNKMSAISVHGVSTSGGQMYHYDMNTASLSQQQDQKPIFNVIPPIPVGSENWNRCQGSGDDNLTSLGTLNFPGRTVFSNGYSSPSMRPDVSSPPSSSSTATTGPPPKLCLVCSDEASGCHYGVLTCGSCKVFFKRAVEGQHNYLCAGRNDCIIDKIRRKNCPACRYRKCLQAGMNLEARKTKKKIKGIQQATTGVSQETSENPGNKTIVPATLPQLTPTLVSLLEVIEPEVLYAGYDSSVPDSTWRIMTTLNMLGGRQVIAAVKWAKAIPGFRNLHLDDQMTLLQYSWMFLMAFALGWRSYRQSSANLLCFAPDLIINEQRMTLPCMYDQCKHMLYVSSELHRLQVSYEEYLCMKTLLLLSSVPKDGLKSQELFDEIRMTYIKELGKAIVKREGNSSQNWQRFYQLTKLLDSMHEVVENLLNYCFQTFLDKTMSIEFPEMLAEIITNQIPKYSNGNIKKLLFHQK
In words: biochemical.

Calls of active or inactive are those of the source. The calls are words filed in the database; no cut-off is given here.

Description for Androgen receptor: Displacement of [3H]-methyltrienolene from human androgen receptor incubated overnight by liquid scintillation counting analysis
Description for Estrogen receptor beta: Displacement of [3H]-estradiol from recombinant full-length human estrogen beta receptor expressed in baculovirus infected insect cells incubated overnight by liquid scintillation counting analysis
Description for Glucocorticoid receptor: Displacement of [3H]-dexamethasone from recombinant full length human glucocorticoid receptor expressed in baculovirus infected insect cells incubated overnight by liquid scintillation counting analysis

Turning to `CC1(C)Oc2cc(NS(C)(=O)=O)ccc2N(c2ccc(F)cc2)C1=O` [MT-3995], the Activity is given as 1.4 in the assay with Rattus norvegicus [1], 0 in the assay with Rattus norvegicus [2] and 0.3 in the assay with Rattus norvegicus [3]. Further, the IC50 against Androgen receptor, on Estrogen receptor beta and against Glucocorticoid receptor was > 100 µM each time. Moreover, the result with Rattus norvegicus [4] was Active. Besides, in assay [5], the ED50 turned out to be 1.1 mg/kg.
